Consider 14 compounds from patent US20030216571A1, “Tricyclic compounds” (priority 1999, published 2003).

The target of one data set is T1, Leukotriene D4 receptor (Cavia porcellus, UniProt Q2NNR5).
T1 construct: As a receptor sample, a lung cell membrane fraction from guinea pigs was used; from tissue; host or cells: lung membrane fraction of Hartley male guinea pigs
T1 sequence (Q2NNR5 1-340): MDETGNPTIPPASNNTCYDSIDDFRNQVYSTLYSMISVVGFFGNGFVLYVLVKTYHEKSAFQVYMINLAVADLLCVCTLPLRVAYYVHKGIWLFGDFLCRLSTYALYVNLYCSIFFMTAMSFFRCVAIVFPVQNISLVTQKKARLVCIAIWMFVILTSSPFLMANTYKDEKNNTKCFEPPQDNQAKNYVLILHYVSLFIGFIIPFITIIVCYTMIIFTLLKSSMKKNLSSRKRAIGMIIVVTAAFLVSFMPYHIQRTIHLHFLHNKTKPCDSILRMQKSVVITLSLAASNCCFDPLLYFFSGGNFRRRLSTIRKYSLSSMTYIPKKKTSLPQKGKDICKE
The data set can be described thus: Leukotriene D4 receptor binding test. The conditions noted are these: binding inhibition constant (Ki) vs [3H] LTD4 0.2 nM, lung cell membrane fraction from guinea pigs, 25° C. for 30 minutes; for Ki: read-out: pKi value (converted). As to the method: Leukotriene D4 Receptor Binding Test
As a receptor sample, a lung cell membrane fraction from guinea pigs was used. Preparation of the membrane fraction was carried out according to the method of Ahn et al. (Eur. J. Pharmacol., 127, 153-155 (1986)). Lungs of Hartley male guinea pigs (400 to 500 g body weight, Nippon SLC Co.) were extracted, and perfused with a physiological saline, and then, adding 10 mM of PIPES, 10 mM of MgCl2 and 10 mM of CaCl2 buffer (pH 7.5) to the lung tissue and the mixture was homogenized. This homogenate was centrifuged at 70,000 xg for 10 minutes to obtain a membrane fraction.
Leukotriene D4 (LTD4) recepter binding test was carried out according to the method of Aharony, et al. (J. Pharmacol. Expl.Ther., 243, 921-926 (1987)). To 0.42 mg of the receptor sample were added 10 mM of PIPES, 10 mM of MgCl2 and 10 mM of CaCl2 buffer (pH 7.5) to make the total amount of 480 μl, and 10 μl of [^3H] LTD4 (NEN Life Science Products Co.) and 10 μl of a Test compound in dimethylsulfoxide were added to the mixture, and the resulting mixture was incubated at 25° C. for 30 minutes. The mixtures thus incubated were filtered through a glass fiber filter (Whatman Co., GF/C) using cell harvester (Brandel Co., M-30R). The filter were washed with 10 mM of Tris. and 100 mM of NaCl buffer (pH 7.5), and 5 ml of a liquid scintillator (NACALAI TESQUE INC., clearsol I), and radioactivity was measured by a liquid scintillation analyzer (Packard Co., 2000CA). When a dissociation constant (Kd) of LTD4 was to be obtained, [^3H] LTD4 with 0.03 to 0.5 nM was used, and 1 μM of non-radioactive LTD4 was added. When a binding inhibition constant (Ki) of the Test compound is to be meaured, [^3H] LTD4 with 0.2 nM was used. Kd and Ki are calculated according to the method of Bennett et al. (Neurotransmitter Receptor Binding, 2nd ed., edited by H. I. Yamamura et al., pp. 61-89, Raven Press (1985)).

In data set [1] the test system is Leukotriene D4 induced respiratory constriction. Briefly: Leukotriene D4 induced respiratory constriction test. The format is in vivo. The conditions noted are these: p.o. 1 hr before i.v. LTD4; anesthetized Hartley male guinea pigs; respiratory inner pressure. As for the experimental part:
Leukotriene D4 Induced Respiratory Constriction Test
Respiratory constriction was measured by modifying the method of Konzett and Rossler (Arch. Exp. Pathol. Pharmakol., 195, pp. 71-74 (1940)). Hartley male guinea pigs (400 to 500 g body weight, Nippon SLC Co.) were anesthetized with pentobarbital (50 mg/kg, s.c.), and a cannula was inserted into the trachea to carry out artificial ventilation with an artificial ventilator (manufactured by Harvard Co., Model 683). An inner pressure of the respiratory tract was measured by a differential pressure transducer (Nihon Koden, TP-603T) connected to the respiratory cannula and it is used as an index of respiratory constriction.
LTD4 (0.03, 0.06, 0.13, 0.25, 0.5, 1 and 2 μg/kg, Sigma Co.) was intravenously administered from a cannula inserted into the right jugular vein from a low dose with an interval of 5 minutes to cause a respiratory constriction reaction and an increased amount of a respiratory inner pressure was measured. Test compound was suspended in 0.5% sodium carboxymethyl cellulose aqueous solution, and orally administered 1 hour before administration of LTD4. Animals were fasted for 24 hours before administration of the Test compound.
A2=(Dose of Compound administered)/{(ED50 of group to which Compound was added)/(ED50 of control group)−1}

Take `O=C(O)C(F)(F)F.O=C(O)CC1(CSC2c3cc(/C=C/c4ccc5cc(F)c(F)cc5n4)ccc3OCc3c(F)cccc32)CC1` (centres unmarked) [Example 3, {1-[[2-[(E)-2-(6,7-difluoro-2-quinolinyl)ethenyl]-7-fluoro-6,11-dihydrodibenz[b,e]oxepin-11-yl]thiomethyl]cyclopropyl}acetic acid trifluoroacetic acid salt]: the melting point was 174 to 179 °C. The Ki on Leukotriene D4 receptor is 0.158 nM. The “A2 (dose of Test compound required for shifting two-times the LTD4 dose-reaction curve of control group to higher dose side)” value in data set [1] is 3.6 µg/kg.
As for `O=C([O-])CCSC1c2ccccc2COc2ccc(/C=C/c3ccc4cc(F)c(F)cc4n3)cc21.[Na+]` (centres unmarked) [Example 5 (b), Sodium 3-{[2-[(E)-2-(6,7-difluoro-2-quinolinyl)ethenyl]-6,11-dihydrodibenz[b,e]oxepin-11-yl]thio}propionate], the melting point lay within 213 to 216 °C. Moreover, the Ki at Leukotriene D4 receptor was 0.251 nM. The “A2 (dose of Test compound required for shifting two-times the LTD4 dose-reaction curve of control group to higher dose side)” value in data set [1] was 2.6 µg/kg.
The like results for `O=C([O-])CC1(CSC2c3ccccc3COc3ccc(/C=C/c4ccc5cc(F)c(F)cc5n4)cc32)CC1.[Na+]` (centres unmarked) [Example 7 (b), Sodium {1-[[2-[(E)-2-(6,7-difluoro-2-quinolinyl)ethenyl]-6,11-dihydrodibenz[b,e]oxepin-11-yl]thiomethyl]cyclopropyl}acetate] were, in that order, 137 to 139 °C, 0.2 nM and 3.5 µg/kg.
On the same counts, the results for `O=C(O)CCSC1c2cc(/C=C/c3ccc4cc(F)c(F)cc4n3)ccc2OCc2c(F)cccc21` (centres unmarked) [Example 12, 3-{[2-[(E)-2-(6,7-difluoro-2-quinolinyl)ethenyl]-7-fluoro-6,11-dihydrodibenz[b,e]oxepin-11-yl]thio}propionic acid] are 224 to 227 °C, 0.158 nM and 4.9 µg/kg.
For the compound `N#Cc1cccc2c1COc1ccc(/C=C/c3ccc4cc(F)c(F)cc4n3)cc1C2SCCC(=O)[O-].[Na+]` (centres unmarked) [Example 13 (b), Sodium 3-{[7-cyano-2-[(E)-2-(6,7-difluoro-2-quinolinyl)ethenyl]-6,11-dihydrodibenz[b,e]oxepin-11-yl]thio}propionate], the melting point lay within 179 to 182 °C. For the same compound, at Leukotriene D4 receptor, the Ki is 0.631 nM. Also, the “A2 (dose of Test compound required for shifting two-times the LTD4 dose-reaction curve of control group to higher dose side)” value in data set [1] turned out to be 7.8 µg/kg.
For `O=C([O-])CCSC1c2cc(/C=C/c3ccc4cc(F)c(F)cc4n3)ccc2OCc2c1cccc2C(F)(F)F.[Na+]` (centres unmarked) [Example 14, Sodium 3-{[2-[(E)-2-(6,7-difluoro-2-quinolinyl)ethenyl]-7-trifluoromethyl-6,11-dihydrodibenz[b,e]oxepin-11-yl]thio}propionate], on Leukotriene D4 receptor, the Ki is 0.631 nM. For the same compound, the “A2 (dose of Test compound required for shifting two-times the LTD4 dose-reaction curve of control group to higher dose side)” value in data set [1] was 4.4 µg/kg.
For the compound `C#Cc1cccc2c1COc1ccc(/C=C/c3ccc4cc(F)c(F)cc4n3)cc1C2SCCC(=O)[O-].[Na+]` (centres unmarked) [Example 15, Sodium 3-{[2-[(E)-2-(6,7-difluoro-2-quinolinyl)ethenyl]-7-ethynyl-6,11-dihydrodibenz[b,e]oxepin-11-yl]thio}propionate], the melting point is 186 to 189 °C. Moreover, the Ki at Leukotriene D4 receptor was 0.158 nM. The “A2 (dose of Test compound required for shifting two-times the LTD4 dose-reaction curve of control group to higher dose side)” value in data set [1] was determined as 0.8 µg/kg.
In turn, `C[C@@H](CSC1c2ccccc2COc2ccc(/C=C/c3ccc4ccc(F)cc4n3)cc21)C(=O)[O-].[Na+]` (stereo partly drawn) [Example 19, Sodium 3-{[2-[(E)-2-(7-fluoro-2-quinolinyl)ethenyl]-6,11-dihydrodibenz[b,e]oxepin-11-yl]thio}-2-(R)-methylpropionate] came in with a melting point of 195 to 205 °C. The Ki at Leukotriene D4 receptor is 0.2 nM. Besides, the “A2 (dose of Test compound required for shifting two-times the LTD4 dose-reaction curve of control group to higher dose side)” value in data set [1] amounted to 2.4 µg/kg.
On the same counts, the results for `C[C@@H](CSC1c2ccccc2COc2ccc(/C=C/c3ccc4ccc(Cl)cc4n3)cc21)C(=O)[O-].[Na+]` (stereo partly drawn) [Example 23, Sodium 3-{[2-[(E)-2-(7-chloro-2-quinolinyl)ethenyl]-6,11-dihydrodibenz[b,e]oxepin-11-yl]thio}-2-(R)-methylpropionate] are 207 to 217 °C, 0.501 nM and 5.7 µg/kg.
The like results for `O=C([O-])CCSC1c2ccccc2COc2ccc(/C=C/c3ccc4c(F)cc(F)cc4n3)cc21.[Na+]` (centres unmarked) [Example 32 (b), Sodium 3-{[2-[(E)-2-(5,7-difluoro-2-quinolinyl)ethenyl]-6,11-dihydrodibenz[b,e]oxepin-11-yl]thio}propionate] were, in that order, 210 to 213 °C, 0.794 nM and 9.4 µg/kg.
As for `O=C([O-])CCSC1c2ccccc2COc2ccc(/C=C/c3ccc4c(F)c(F)c(F)cc4n3)cc21.[Na+]` (centres unmarked) [Example 34 (b), Sodium 3-{[2-[(E)-2-(5,6,7-trifluoro-2-quinolinyl)ethenyl]-6,11-dihydrodibenz[b,e]oxepin-11-yl]thio}propionate], the melting point lay in the range of 235 to 237 °C. Also, the Ki on Leukotriene D4 receptor is 0.631 nM. For the same compound, in data set [1], the “A2 (dose of Test compound required for shifting two-times the LTD4 dose-reaction curve of control group to higher dose side)” value turned out to be 7.7 µg/kg.
In the case of `O=C([O-])CCCC1c2ccccc2COc2ccc(/C=C/c3ccc4cc(F)c(F)cc4n3)cc21.[Na+]` (centres unmarked) [Example 51 (c), Sodium 4-[2-[(E)-2-(6,7-difluoro-2-quinolinyl)ethenyl]-6,11-dihydrodibenz[b,e]oxepin-11-yl]butanoate], the Ki at Leukotriene D4 receptor is 0.158 nM. Further, the “A2 (dose of Test compound required for shifting two-times the LTD4 dose-reaction curve of control group to higher dose side)” value in data set [1] was 3.6 µg/kg.
The like results for `CC(C)(CC(=O)O)SC1c2ccccc2COc2ccc(/C=C/c3ccc4cc(F)c(F)cc4n3)cc21` (centres unmarked) [Example 58, 3-{[2-[(E)-2-(6,7-difluoro-2-quinolinyl)ethenyl]-6,11-dihydrodibenz[b,e]oxepin-11-yl]thio}-3-methylbutanoic acid] were, in that order, 0.501 nM and 6.4 µg/kg.
Consider “Sodium [2-[(E)-2-(6,7-difluoro-2-quinolinyl)ethenyl]-6,11-dihydrodibenz[b,e]oxepin-11-yl]thioacetate [Example 4]”, for which the pKi value on Leukotriene D4 receptor is 9.8. Also, the “A2 (dose of Test compound required for shifting two-times the LTD4 dose-reaction curve of control group to higher dose side)” value in data set [1] came out at 3.7 µg/kg.

What is called melting point is the temperature of the solid-liquid transition.
